Legend:
Type in all cases: cell-based
[1] = test system: endogenous potassium conductance of HEK-293 cells; experiment: FRET membrane potential assay (VIPR), high-potassium addition to untransfected HEK-293 cells; settings: Figure 1; for effect on the fluorescence signal caused by high-potassium addition: different/increasing concentrations of compound; for efficacy of Compound A or Compound B in the presence of Compound 1: selective maxi-K channel blocker Compound 1 present
Protocol: HEK-293 cells were plated on 96-well poly-D-lysine plates and incubated for about 16 to 24 hours at 37°C. The media was aspirated and the cells were washed once with D-PBS. Cells were incubated with 9 µM coumarin (CC2DMPE)-0.02% pluronic-127 in D-PBS for 30 minutes in the dark. Cells were washed twice with D-PBS, and incubated with 4.5 µM oxanol (DiSBAC2(3)) in the absence (Control) or presence of increasing concentrations of test compound, in the dark for 30 minutes. Plates were loaded onto a VIPR instrument and the fluorescence emission of both dyes was recorded for 10 seconds. A solution containing high-potassium was then added and the fluorescence emission of the dyes was recorded for another 10 seconds. The coumarin/oxanol ratio was calculated under both conditions. Before addition of high-potassium, this ratio was always normalized to 1.
The signal is not affected by the presence of different concentrations of the selective maxi-K channel blocker, Compound 1. […] A useful concentration range for these agents is 3-10 µM. Importantly, in the presence of the selective maxi-K channel blocker Compound 1, the efficacy of either Compound A or Compound B is unaffected.

[2] = target: T1, maxi-K channel (alpha and beta1 subunits) in stably transfected HEK-293 cells (Homo sapiens, UniProt Q12791); experiment: FRET membrane potential assay (VIPR), HEK-293 cells stably transfected with alpha and beta1 subunits of the maxi-K channel
T1 construct: expressed in transfected cells
Protocol: Transfection of the alpha and beta1 subunits of the maxi-K channel in HEK-293 cells was carried out as follows: HEK-293 cells were plated in 100 mm tissue culture treated dishes at a density of 3x10^6 cells per dish, and a total of five dishes were prepared. Cells were grown in a medium consisting of Dulbecco's Modified Eagle Medium (DMEM) supplemented with 10% Fetal Bovine serum, 1X L-Glutamine, and 1X Penicillin/Streptomycin, at 37°C, 10% CO2. For transfection with Maxi-K hα (pCIneo) and Maxi-K hβ1 (pIRESpuro) DNAs, 150 µl FuGENE6™ was added dropwise into 10 ml of serum free/phenol-red free DMEM and allowed to incubate at room temperature for 5 minutes. Then, the FuGENE6™ solution was added dropwise to a DNA solution containing 25 µg of each plasmid DNA, and incubated at room temperature for 30 minutes. After the incubation period, 2 ml of the FuGENE6™/DNA solution was added dropwise to each plate of cells and the cells were allowed to grow two days under the same conditions as described above. At the end of the second day, cells were put under selection media which consisted of DMEM supplemented with both 600 µg/ml G418 and 0.75 µg/ml puromycin. Cells were grown until separate colonies were formed. Five colonies were collected and transferred to a 6 well tissue culture treated dish. A total of 75 colonies were collected. Cells were allowed to grow until a confluent monolayer was obtained. Cells were then tested for the presence of maxi-K channel alpha and beta 1 subunits using an assay that monitors binding of ^125I-iberiotoxin-D19Y/Y36F to the channel. Cells expressing ^125I-iberiotoxin-D19Y/Y36F binding activity were then evaluated in a functional assay that monitors the capability of maxi-K channels to control the membrane potential of transfected HEK-293 cells using fluorescence resonance energy transfer (FRET) ABS technology with a VIPR instrument. The colony giving the largest signal to noise ratio was subjected to limiting dilution. For this, cells were resuspended at approximately 5 cells/ml, and 200 µl were plated in individual wells in a 96 well tissue culture treated plate, to add ca. one cell per well. A total of two 96 well plates were made. When a confluent monolayer was formed, the cells were transferred to 6 well tissue culture treated plates. A total of 62 wells were transferred. When a confluent monolayer was obtained, cells were tested using the FRET-functional assay. […]
The plates are loaded into a voltage/ion probe reader (VIPR) instrument, and the fluorescence emission of both CC2DMPE and DiSBAC2(3) are recorded for 10 sec. At this point, 100 µl of high-potassium solution (mM): 140 KCl, 2 CaCl2, 1 MgCl2, 20 Hepes-KOH, pH 7.4, 10 glucose are added and the fluorescence emission of both dyes recorded for an additional 10 sec. […]

[3] = target: T2, maxi-K channels transiently expressed in TsA-201 cells (Homo sapiens, UniProt Q12791); experiment: FRET membrane potential assay (VIPR), maxi-K channels transiently expressed in TsA-201 cells; settings: 3 µM, Figure 2
T2 construct: expressed in transfected cells; host or cells: TsA-201 cells, transient transfection
T2 sequence (Q12791 whole entry): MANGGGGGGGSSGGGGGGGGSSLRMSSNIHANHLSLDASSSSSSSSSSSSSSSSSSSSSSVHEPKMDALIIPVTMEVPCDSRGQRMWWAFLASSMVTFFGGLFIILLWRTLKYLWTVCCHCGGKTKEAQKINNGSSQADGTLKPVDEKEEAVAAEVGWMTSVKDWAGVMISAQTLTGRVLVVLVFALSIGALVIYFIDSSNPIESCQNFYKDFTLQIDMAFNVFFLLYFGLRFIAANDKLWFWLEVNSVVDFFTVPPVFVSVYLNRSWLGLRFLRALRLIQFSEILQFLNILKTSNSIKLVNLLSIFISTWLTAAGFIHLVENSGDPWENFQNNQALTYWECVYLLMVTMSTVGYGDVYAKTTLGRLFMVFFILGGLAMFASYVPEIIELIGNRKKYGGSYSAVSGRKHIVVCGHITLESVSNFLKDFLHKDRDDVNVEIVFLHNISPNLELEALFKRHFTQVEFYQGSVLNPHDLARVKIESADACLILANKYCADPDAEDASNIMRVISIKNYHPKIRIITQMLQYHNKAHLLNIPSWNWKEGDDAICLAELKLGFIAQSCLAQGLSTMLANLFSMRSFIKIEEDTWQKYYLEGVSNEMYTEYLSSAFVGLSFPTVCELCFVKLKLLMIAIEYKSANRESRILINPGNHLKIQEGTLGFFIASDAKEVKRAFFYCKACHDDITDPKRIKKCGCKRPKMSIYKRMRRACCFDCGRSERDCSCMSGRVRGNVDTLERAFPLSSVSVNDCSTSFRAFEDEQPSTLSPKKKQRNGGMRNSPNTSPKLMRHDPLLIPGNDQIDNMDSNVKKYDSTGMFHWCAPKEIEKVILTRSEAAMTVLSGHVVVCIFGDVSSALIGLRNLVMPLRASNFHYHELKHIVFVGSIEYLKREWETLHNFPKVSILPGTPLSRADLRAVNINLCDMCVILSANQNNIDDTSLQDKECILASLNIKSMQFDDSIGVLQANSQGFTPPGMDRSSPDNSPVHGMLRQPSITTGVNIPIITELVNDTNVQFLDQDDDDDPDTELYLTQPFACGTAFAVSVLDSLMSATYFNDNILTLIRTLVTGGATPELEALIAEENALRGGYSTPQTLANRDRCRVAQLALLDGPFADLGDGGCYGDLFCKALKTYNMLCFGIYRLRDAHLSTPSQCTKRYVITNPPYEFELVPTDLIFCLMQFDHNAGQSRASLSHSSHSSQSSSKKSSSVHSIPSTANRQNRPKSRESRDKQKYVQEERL
T2 sequence (Q16558 whole entry partner): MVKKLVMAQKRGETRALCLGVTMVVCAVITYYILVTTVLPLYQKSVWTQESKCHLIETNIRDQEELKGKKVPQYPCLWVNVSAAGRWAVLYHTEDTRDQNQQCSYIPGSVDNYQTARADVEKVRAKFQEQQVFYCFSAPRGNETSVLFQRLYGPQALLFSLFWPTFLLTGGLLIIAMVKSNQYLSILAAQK

T1 sequence (Q12791 whole entry): as the sequence (Q12791 whole entry) above
T1 sequence (Q16558 whole entry partner): as the sequence (Q16558 whole entry partner) above

| Structure (SMILES) | effect on the fluorescence signal caused by high-potassium addition [1] | inhibition of the control signal ([2]; 3 µM Compound A present in all wells, increasing concentrations of compound, Figure 4) | block of the signal generated by addition of a high-potassium solution ([2]; compound alone, no endogenous conductance blocker, Figure 3) | inhibition of the signal generated by addition of a high-potassium solution ([2]; in the presence of Compound A, Figure 3) | effect on control signal (maxi-K channel activity) [3] | efficacy of Compound A or Compound B in the presence of Compound 1 [1] | effect on the magnitude of the signal caused by addition of high-potassium solution ([2]; Compound A alone, Figure 3) |
| --- | --- | --- | --- | --- | --- | --- | --- |
| COc1ccc2c(c1)c(CC(=O)N(C(=O)NC1CCCCC1)C1CCCCC1)c(C)n2C(=O)c1ccc(Cl)cc1 [Compound 1] | not affected | concentration-dependent inhibition of the control signal | only partially blocks the signal | complete inhibition of the signal | completely inhibits the control signal | – | – |
| CCCNC(=O)OC1CCC(CNC(=O)c2ccccc2OC)(c2ccccc2)CC1 (stereo not shown) [Compound A] | concentration-dependent inhibition of the fluorescence signal | – | – | – | – | unaffected | no significant effect on the magnitude of the signal |
| COc1ccccc1C(=O)NCC1(c2ccccc2)CCC(=O)CC1 [Compound B] | concentration-dependent inhibition of the fluorescence signal | – | – | – | – | unaffected | – |
